{
  "source": "patent US20260042801A1",
  "about": "“COMPOSITIONS AND METHODS FOR DYE-BOUND CYCLIZED PEPTIDES FOR MEDICAL USE” (The Texas A&M University System, priority 2022, published 2026)",
  "key": {"[1]": {"test_system": "severe T8 contusion/compression SCI", "assay": "Preclinical SCI model: histological analysis of spinal cord", "type": "in vivo, mouse", "conditions": "7 weeks post injury", "excerpt": "FIGS. 11A-11E: Histological analysis of spinal cords after 5c(i) treatment. […] 7 weeks post injury, spinal cords were sectioned sagittal to conduct histological analyses. Value of 11A) change in intensity of 5-HT, average fluorescence intensity of 11B) IBA1 and 11C) CD68, and number of 11D) CD68+ and 11E) SOX9+ cells in relation to distance from injury (− value represents rostral to injury, + value represents caudal to injury). […] N=6-8. Graphs show mean and SEM. […] Student's T-test.\nMice were sacrificed 7 weeks after injury by a lethal dose of Fatal plus (pentobarbital), then, transcardial perfusion was performed with PBS-Heparin (10,000 unit/L, 20 mL, 5 mL/min) followed by a 4% paraformaldehyde fixative solution (30 mL/mouse, at 5 mL/min). Right after perfusion, tissues were immersed in 4% PFA for 24 hours, transferred to 15% sucrose for 24 hours, then transferred to 30% sucrose for 24 hours before being embedded. Subsequently, the spinal cords (at injury site±1 mm) were cut into 25 μm-thick transverse sections using a freezing microtome (THERMO FISHER SCIENTIFIC® (laboratory reagents), Microm HM550). For immunohistochemistry (IHC), the spinal cord tissue sections were placed in a blocking solution (5% BSA, 0.4% Triton X-100, PBS) for 1 hour at room temperature. This was followed by overnight incubation with primary antibodies at room temperature. The tissue sections were subsequently washed 3 times with 0.4% Triton X-100-PBS, followed by 1 hour incubation at room temperature with the appropriate secondary antibodies (1:500, INVITROGEN™ (laboratory reagents) ALEXA FLUOR® (fluorescent dyes) Plus series). The primary antibodies included biotinylated NeuN (EMD MILLIPORE® (pharmaceuticals and chemicals), MAB377B, 1:500), rat GFAP (FISHER SCIENTIFIC® (laboratory reagents), 130300, 1:500), rabbit Iba1 (FUJIFILM® (camera components) Wako Chemicals, 019-19741, 1:500), rat CD68 (BIO-RAD®, (electrophoresis and chromatography materials) MCA1957, 1:500), goat SOX9 (R&D SYSTEMS® (biological reagents), AF3075, 1:500), and rabbit anti-5-HT (ImmunoStar, 20080, 1:500). Sections were stained with DAPI (1:5000, Millipore Sigma) to visualize the nucleus. The images were acquired using VS120 Virtual Slide Microscope (Olympus) and Axio Observer 7 (ZEISS® (optical products)) and analyzed with QuPath 0.4.3. The contour (polygonal) tool in the Zen 3.2 (Carl Zeiss AG, Jena, Germany) software was used to trace and measure lesion and cavity size. The lesion size was measured by tracing the glial scar border labeled with GFAP surrounding a DAPI^+ inner region. Cavity size was measured by measuring the region within the spinal cord without any visible nuclei yet surrounded by GFAP labeled glial scar. Three spinal cord sections per animal were imaged and analyzed. The 3 sections included the section containing the largest lesion size along with sections 300 μm rostral and caudal. Images were quantified using QuPath software. Eight boxes with a width of 200 μm were drawn both rostral and caudal of the injury epicenter. A contour polygon was made around the spinal cord in each of the sixteen boxes. Fluorescent intensity and cell counting was conducted using automated QuPath software. Histological analysis on liver tissue was conducted by sectioning the left lobe of the liver into 8 μm-thick transverse sections. […] Collagen accumulation was quantified using automated QuPath software to determine the extent of fibrosis."}, "[2]": {"test_system": "severe T8 contusion/compression SCI", "assay": "Preclinical SCI model: liver Masson's trichrome collagen deposition", "type": "in vivo, mouse", "conditions": "7 weeks post injury", "experimental": "N=6-8. […] Student's T-test.\nMice were sacrificed 7 weeks after injury by a lethal dose of Fatal plus (pentobarbital), then, transcardial perfusion was performed with PBS-Heparin (10,000 unit/L, 20 mL, 5 mL/min) followed by a 4% paraformaldehyde fixative solution (30 mL/mouse, at 5 mL/min). Right after perfusion, tissues were immersed in 4% PFA for 24 hours, transferred to 15% sucrose for 24 hours, then transferred to 30% sucrose for 24 hours before being embedded. Subsequently, the spinal cords (at injury site±1 mm) were cut into 25 μm-thick transverse sections using a freezing microtome (THERMO FISHER SCIENTIFIC® (laboratory reagents), Microm HM550). […] The images were acquired using VS120 Virtual Slide Microscope (Olympus) and Axio Observer 7 (ZEISS® (optical products)) and analyzed with QuPath 0.4.3. […] The lesion size was measured by tracing the glial scar border labeled with GFAP surrounding a DAPI^+ inner region. Cavity size was measured by measuring the region within the spinal cord without any visible nuclei yet surrounded by GFAP labeled glial scar. Three spinal cord sections per animal were imaged and analyzed. […] Images were quantified using QuPath software. […] Collagen accumulation was quantified using automated QuPath software to determine the extent of fibrosis."}, "[3]": {"test_system": "adult cortical neurons on astrocytes", "assay": "Neurons plated on 5c(i)-pretreated astrocytes", "type": "cell-based, mouse", "conditions": "astrocytes cultured with 5c(i) 2 days, 5c(i) removed, neurons 2DIV", "experimental": "(§1) FIGS. 4A-4D: 5c(i) induces Synapsin I production and reduces C3 and GSK-3s expression from astrocytes promoting neuron survival and neurite growth. Primary adult cortical astrocytes from 6-month-old male mice were incubated with 5 μM 5c(i) for 3 days. Graph represents mean±SEM of percent change in fluorescent intensity (Synapsin I and C3) or chemiluminescence (GSK-3β) relative to Vehicle (4A and 4D). Images represent the 4B) Vehicle and 4C) 5 μM 5c(i) treated groups stained with Synapsin I and DAPI. D) Cortical astrocytes from 6-month-old male mice were plated and treated with 5c(i) or Vehicle for 2 days. Cells were then washed and cortical neurons from 6-month-old male mice were added on top of the astrocytes. […] Scale bar=50 μm.\n(§2) To determine if 5c(i) can modulate astrocytes, adult astrocytes from 6-month-old male mice were treated with 5c(i) for 3 days and stained with Synapsin I and C3 to measure changes in fluorescent intensity or western blot was conducted on the cell lysate to assess changes in GSK-3β expression (FIG. 4). […] To determine if 5c(i) treated astrocytes can directly benefit neuronal recovery, astrocytes were cultured with 5c(i) for 2 days before removing 5c(i) from the culture and plating adult neurons on top of the astrocytes for 2DIV, resulting in increased neuron survival and neurite growth. […]"}, "[4]": {"conditions": "mouse, in vivo", "quoted_text": "8-week-old male mice with a severe T8 contusion/compression SCI were injected IP daily with 5c(i) for 7 weeks (5 and 25 mg/kg/day). […] 7 weeks post injury, heparinized plasma was collected and 12B) alanine aminotransferase (ALT), 12C) alkaline phosphatase (ALP), 12D) aspartate aminotransferase (AST), and 12E) blood urea nitrogen (BUN) levels were assessed. […] N=6-8. Graphs show mean and SEM. # (p<0.1) * (p<0.05) ** (p<0.01) *** (p<0.001) **** (p<0.0001). Student's T-test.\nFor the administration of pharmaceutical agents, the vehicle was 0.6 mL/kg of 100% dimethyl sulfoxide (DMSO). 5c(i) (at 5 and 25 mg/kg/day) diluted in vehicle or vehicle alone was administered once daily through intraperitoneal (IP) injections at a volume of 0.6 mL/kg/day.\nSeven weeks after injury, histological analysis was performed on livers, and toxicology screens were conducted on plasma (FIG. 12)."}, "GSK-3β": {"test_system": "GSK-3β", "assay": "Astrocyte GSK-3β western blot", "type": "cell-based, mouse", "conditions": "astrocytes from 6-month-old male mice, 5 μM, 3 days, cell lysate", "experimental": "as §1, §2"}},
  "data": [
    {"substance": "C-DIRG-C BODIPY® (fluorescent dye) [5c(i)]", "values": [
      {"measurement": "number of SOX9′ cells", "setting": "[1]; around the injury site", "result": "reduced"},
      {"measurement": "prevalence of CD68+ cells", "setting": "[1]; around the injury site", "result": "significantly reduced"},
      {"measurement": "CD68 immunoreactivity", "setting": "[1]; at the injury site", "result": "significantly reduced"},
      {"measurement": "serotonergic (5-HT) axon immunoreactivity", "setting": "[1]; caudal to the injury site", "result": "increased"},
      {"measurement": "IBA1 immunoreactivity", "setting": "[1]; spinal cord", "result": "reduced"},
      {"measurement": "liver collagen deposition", "setting": "[2]", "result": "alleviated"},
      {"measurement": "neurite growth on pretreated astrocytes", "setting": "[3]", "result": "increased"},
      {"measurement": "neuron survival on pretreated astrocytes", "setting": "[3]", "result": "increased"},
      {"measurement": "alanine aminotransferase (ALT)", "setting": "[4]", "result": "does not alter"},
      {"measurement": "alkaline phosphatase (ALP)", "setting": "[4]", "result": "does not alter"},
      {"measurement": "aspartate aminotransferase (AST)", "setting": "[4]", "result": "does not alter"},
      {"measurement": "blood urea nitrogen (BUN)", "setting": "[4]", "result": "does not alter"},
      {"measurement": "GSK-3β expression", "setting": "GSK-3β", "result": "reduction"}
    ]}
  ]
}
